The term IC50 denotes the concentration needed to halve the response being measured.

For this assay, the target named is adenosine kinase (Homo sapiens, UniProt P55263). Briefly: In vitro inhibition of adenosine kinase activity. Format: biochemical. An excerpt: The adenosine kinase to be inhibited can be located in vitro, in situ or in vivo. Where the adenosine kinase is located in vitro, adenosine kinase is contacted with the inhibitor compound, typically by adding the compound to an aqueous solution containing the enzyme, radiolabeled substrate adenosine, magnesium chloride and ATP. The enzyme can exist in intact cells or in isolated subcellular fractions containing the enzyme. The enzyme is then maintained in the presence of the inhibitor for a period of time and under suitable physiological conditions. Means for determining maintained times are well known in the art and depend inter alia on the concentrations of enzyme and the physiological conditions. Suitable physiological conditions are those necessary to maintain adenosine kinase viability and include temperature, acidity, tonicity and the like. Inhibition of adenosine kinase can be performed, by example, according to standard procedures well known in the art (Yamada et at., Comp. Biochem. Physiol. 1982, 71B: 367-372).
In vitro adenosine kinase activity can be measured using any of the standard procedures well known in the art. By way of example, cells containing adenosine kinase, such as IMR-32 human neuroblastoma cells, are cultured in the presence and absence of an inhibitor. Inhibition is measured as the ability to inhibit phosphorylation of endogenous or externally applied ^14 C-adenosine by these cells. The cells can be intact or broken. The specificity of adenosine kinase inhibitory activity is determined by studying the effects of inhibitors on adenosine A1 and A2a receptor binding, adenosine deaminase activity and adenosine transport.
Numerous inhibitor compounds of the present invention were tested in vitro and found to inhibit adenosine kinase activity. The results of some representative studies are shown below in Tables 1 and 2.

Some results are limits rather than exact numbers.

Chain of adenosine kinase (P55263 whole entry, species assumed): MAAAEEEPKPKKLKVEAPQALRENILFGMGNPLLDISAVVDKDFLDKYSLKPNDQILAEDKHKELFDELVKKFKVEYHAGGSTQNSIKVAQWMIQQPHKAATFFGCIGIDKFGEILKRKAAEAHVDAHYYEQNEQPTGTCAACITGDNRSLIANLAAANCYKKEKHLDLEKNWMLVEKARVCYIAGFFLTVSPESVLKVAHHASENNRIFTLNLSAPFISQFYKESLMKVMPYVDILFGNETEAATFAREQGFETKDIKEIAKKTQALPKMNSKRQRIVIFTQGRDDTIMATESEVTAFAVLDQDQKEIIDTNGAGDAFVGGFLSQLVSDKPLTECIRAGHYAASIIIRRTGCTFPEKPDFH

The compound `CC(=O)N[C@H]1C[C@@H](n2cc(I)c3c(O)ncnc32)[C@@H]2OC(=O)O[C@@H]21` [drawing 21 (R=CH3CO, R5=OH), N7-((1'R,2'S,3'R,4'S)-2',3'--O-(2"-oxo-1",3"-dioxalyl)-4'-(acetyl)amino-cyclopentyl)-4-hydroxy-5-iodo-pyrrolopyrimidine] returned an IC50 (Table 2, in vitro) of 4000 nM.
In turn, `N[C@@H]1C=C[C@H](n2cc(I)c3c(Cl)ncnc32)C1` returned an IC50 (Table 1, in vitro, single structure) of 2.5 nM. In other words, the single-digit nanomolar range.
As to `CC(C)(C)OC(=O)N[C@H]1C[C@@H](n2cc(I)c3c(N)ncnc32)[C@H](O)[C@@H]1O` [drawing 18 (R5=NH2, R=NHBoc), N7-((1'R,2'S,3'R,4'S)-2',3'-dihydroxy-4'-(t-butoxycarbonylamino)-cyclopentyl)-4-amino-5-iodo-pyrrolopyrimidine], under “Table 2, in vitro”, 150 nM corresponded to half-maximal inhibition (IC50).
In the case of `CN(C)[C@H]1C[C@@H](n2cc(I)c3c(Cl)ncnc32)[C@H](O)[C@@H]1O` [drawing 14 (R4=(CH3)2N, R5=Cl, R6=I), N7-((1'R,2'S,3'R,4'S)-2',3'-dihydroxy-4'-(dimethyl)amino-cyclopentyl)-4-chloro-5-iodo-pyrrolopyrimidine], the IC50 (Table 1, in vitro) was determined as 20 nM.
For `N[C@H]1C[C@@H](n2cc(I)c3c(Cl)ncnc32)[C@@H]2OC(=O)O[C@@H]21` [drawing 21 (R=H, R5=Cl), N7-((1'R,2'S,3'R,4'S)-2',3'--O-(2"-oxo-1",3"-dioxalyl)-4'-amino-cyclopentyl)-4-chloro-5-iodo-pyrrolopyrimidine], the IC50 (Table 2, in vitro) was found to be 2.5 nM.
Regarding `O[C@@H]1[C@H](O)[C@@H](O)C[C@H]1n1cc(C#Cc2ccccc2)c2c(C#Cc3ccccc3)ncnc21` [drawing 13 (R5=PhCC, R6=PhCC), N7-((1'R,2'S,3'R,4'S)-2',3',4'-trihydroxycyclopentyl)-4,5-bis-phenylacetylenyl-pyrrolopyrimidine], the IC50 (Table 1, in vitro) was found to be 15 nM.
Compound `CC(=O)N[C@H]1C[C@@H](n2cc(I)c3c(Cl)ncnc32)[C@H](OC(C)=O)[C@@H]1OC(C)=O` [drawing 17 (R5=Cl)] returned an IC50 (Table 2, in vitro) greater than 10000 nM.
Same read-out and setting: the value for `CC(=O)O[C@@H]1[C@H](OC(C)=O)[C@@H](OC(C)=O)C[C@H]1n1cc(C#Cc2ccccc2)c2c(C#Cc3ccccc3)ncnc21` [drawing 16 (R5=PhCC, R6=PhCC), N7-((1'R,2'S,3'R,4'S)-2',3',4'-triacetoxycyclopentyl)-4,5-bis-phenylacetylenyl-pyrrolopyrimidine] was greater than 10000 nM.
The compound `N[C@H]1C[C@@H](n2cc(I)c3c(Cl)ncnc32)[C@H](O)[C@@H]1O` [drawing 14 (R4=H2N, R5=Cl, R6=I), N7-((1'R,2'S,3'R,4'S)-2',3'-dihydroxy-4'-amino-cyclopentyl)-4-chloro-5-iodo-pyrrolopyrimidine] displayed an IC50 (Table 1, in vitro) of 0.035 nM. This counts as picomolar.
Compound `O[C@@H]1[C@H](O)[C@@H](O)C[C@H]1n1cc(I)c2c(Cl)ncnc21` [drawing 13 (R5=Cl, R6=I), N7-((1'R,2'S,3'R,4'S)-2',3',4'-trihydroxycyclopentyl)-4-chloro-5-iodo-pyrrolopyrimidine] showed an IC50 (Table 1, in vitro) of 10 nM.
Still for that read-out and setting: the value for `Nc1ncnc2c1c(I)cn2[C@@H]1C[C@H](N)[C@@H](O)[C@H]1O` [drawing 14 (R4=H2N, R5=NH2, R6=I), N7-((1'R,2'S,3'R,4'S)-2',3'-dihydroxy-4'-amino-cyclopentyl)-4-amino-5-iodo-pyrrolopyrimidine] was 0.08 nM.
As to `O=C(N[C@H]1C[C@@H](n2cc(I)c3c(Cl)ncnc32)[C@H](O)[C@@H]1O)c1cccnc1`, for the setting “Table 2, in vitro”, the IC50 is 5 nM.
`CC(=O)N[C@H]1C[C@@H](n2cc(I)c3c(N)ncnc32)[C@H](O)[C@@H]1O` [drawing 18 (R5=NH2, R=CH3CO), N7-((1'R,2'S,3'R,4'S)-2',3'-dihydroxy-4'-(acetyl)amino-cyclopentyl)-4-amino-5-iodo-pyrrolopyrimidine]: inhibition (Table 2, in vitro) was half-maximal at 160 nM (IC50). Compared with the last compound, the IC50 is about 32-fold higher.
Same read-out and setting: with `O=C(N[C@H]1C[C@@H](n2cc(I)c3c(O)ncnc32)[C@H](O)[C@@H]1O)C(F)(F)F` [drawing 18 (R5=OH, R=CF3CO), N7-((1'R,2'S,3'R,4'S)-2',3'-dihydroxy-4'-(trifluoroacetyl)amino-cyclopentyl)-4-hydroxy-5-iodo-pyrrolopyrimidine] the figure was 200 nM.
Compound `Nc1ncnc2c1c(I)cn2[C@@H]1C[C@H](O)[C@@H](O)[C@H]1O` [drawing 13 (R5=NH2, R6=I), N7-((1'R,2'S,3'R,4'S)-2',3',4'-trihydroxycyclopentyl)-4-amino-5-iodo-pyrrolopyrimidine] yielded an IC50 (Table 1, in vitro) of 13 nM.
Still for that read-out and setting: with `O[C@@H]1[C@H](O)[C@@H](O)C[C@H]1n1cc(I)c2c(Nc3ccccc3)ncnc21` [drawing 13 (R5=NHPh, R6=I), N7-((1'R,2'S,3'R,4'S)-2',3',4'-trihydroxycyclopentyl)-4-(phenyl)amino-5-iodo-pyrrolopyrimidine] the figure was 100 nM.
For the compound `CC(=O)N[C@H]1C[C@@H](n2cc(I)c3c(Cl)ncnc32)[C@H](O)[C@@H]1O` [drawing 18 (R5=Cl, R=CH3CO), N7-((1'R,2'S,3'R,4'S)-2',3'-dihydroxy-4'-(acetyl)amino-cyclopentyl)-4-chloro-5-iodo-pyrrolopyrimidine], for the setting “Table 2, in vitro”, the IC50 came out at 350 nM.
Regarding `CC(C)(C)OC(=O)N(C(=O)OC(C)(C)C)[C@H]1C[C@@H](n2cc(I)c3c(Cl)ncnc32)[C@H](O)[C@@H]1O` [drawing 14 (R4=Boc2N, R5=Cl, R6=I), N7-((1'R,2'S,3'R,4'S)-2',3'-dihydroxy-4'-(bis-t-butoxycarbonylamino)-cyclopentyl)-4-chloro-5-iodo pyrrolopyrimidine], the IC50 (Table 1, in vitro) is greater than 1000 nM.
On the same count and under the same terms, with `CN[C@H]1C[C@@H](n2cc(C)c3c(Cl)ncnc32)[C@H](O)[C@@H]1O` [drawing 14 (R4=CH3NH, R5=Cl, R6=CH3), N7-((1'R,2'S,3'R,4'S)-2',3'-dihydroxy-4'-(methyl)amino-cyclopentyl)-4-chloro-5-methyl-pyrrolopyrimidine] the figure was 300 nM; with `O[C@@H]1[C@H](O)[C@@H](O)C[C@H]1n1cc(Cl)c2c(Cl)ncnc21` [drawing 13 (R5=Cl, R6=Cl), N7-((1'R,2'S,3'R,4'S)-2',3',4'-trihydroxycyclopentyl)-4,5-dichloro-pyrrolopyrimidine], 90 nM; with `O[C@@H]1[C@H](O)[C@@H](O)C[C@H]1n1cc(-c2ccccc2)c2c(Nc3ccccc3)ncnc21` [drawing 13 (R5=NHPh, R6=Ph), N7-((1'R,2'S,3'R,4'S)-2',3',4'-trihydroxycyclopentyl)-4-(phenyl)amino-5-phenyl-pyrrolopyrimidine], 3 nM.
On to `Nc1ncnc2c1c(-c1ccccc1)cn2[C@@H]1C[C@H](O)[C@@H](O)[C@H]1O` [drawing 13 (R5=NH2, R6=Ph), N7-((1'R,2'S,3'R,4'S)-2',3',4'-trihydroxycyclopentyl)-4-amino-5-phenyl-pyrrolopyrimidine], for which the IC50 (Table 1, in vitro) stood at 200 nM.
Same read-out and setting: with `Nc1ncnc2c1c(C#Cc1ccccc1)cn2[C@@H]1C[C@H](O)[C@@H](O)[C@H]1O` [drawing 13 (R5=NH2, R6=PhCC), N7-((1'R,2'S,3'R,4'S)-2',3',4'-trihydroxycyclopentyl)-4-amino-5-phenylacetylenyl-pyrrolopyrimidine] the figure was 230 nM.
Same read-out and setting: with `O[C@@H]1[C@H](O)[C@@H](O)C[C@H]1n1cc(C#Cc2ccccc2)c2c(Cl)ncnc21` [drawing 13 (R5=Cl, R6=PhCC), N7-((1'R,2'S,3'R,4'S)-2',3',4'-trihydroxycyclopentyl)-4-chloro-5-phenylacetylenyl-pyrrolopyrimidine] the figure was 100 nM.
The same measure, in the same setting: with `Nc1ncnc2c1c(CCc1ccccc1)cn2[C@@H]1C[C@H](O)[C@@H](O)[C@H]1O` [drawing 13 (R5=NH2, R6=PhCH2CH2), N7-((1'R,2'S,3'R,4'S)-2',3',4'-trihydroxycyclopentyl)-4-amino-5-((2phenyl)ethyl)-pyrrolopyrimidine] the figure was 300 nM.
Compound `CC(=O)O[C@@H]1[C@H](OC(C)=O)[C@@H](OC(C)=O)C[C@H]1n1cc(-c2ccccc2)c2c(Cl)ncnc21` [drawing 16 (R5=Cl, R6=Ph), N7-((1'R,2'S,3'R,4'S)-2',3',4'-triacetoxycyclopentyl)-4-chloro-5-phenyl-pyrrolopyrimidine] displayed an IC50 (Table 2, in vitro) greater than 100000 nM.
In turn, `O[C@@H]1[C@H](O)[C@@H](O)C[C@H]1n1cc(-c2ccccc2)c2c(Cl)ncnc21` [drawing 13 (R5=Cl, R6=Ph), N7-((1'R,2'S,3'R,4'S)-2',3',4'-trihydroxycyclopentyl)-4-chloro-5-phenyl-pyrrolopyrimidine] came in with an IC50 (Table 1, in vitro) of 45 nM. In other words, the double-digit nanomolar range.
In turn, `CC(C)(C)OC(=O)N[C@H]1C[C@@H](n2cc(I)c3c(N)ncnc32)[C@H](O)[C@@H]1O` [drawing 14 (R4=NHBoc, R5=NH2, R6=I), N7-((1'R,2'S,3'R,4'S)-2',3'-dihydroxy-4'-(t-butoxycarbonylamino)-cyclopentyl)-4-amino-5-iodo-pyrrolopyrimidine] yielded an IC50 (Table 1, in vitro) of 15 nM.
In the case of `CC(=O)N[C@H]1C[C@@H](n2cc(I)c3c(Cl)ncnc32)[C@@H]2OC(=O)O[C@@H]21` [drawing 21 (R=CH3CO, R5=Cl), N7-((1'R,2'S,3'R,4'S)-2',3'--O-(2"-oxo-1",3"-dioxalyl)-4'-(acetyl)amino-cyclopentyl)-4-chloro-5-iodo-pyrrolopyrimidine], the IC50 (Table 2, in vitro) amounted to 6300 nM. That is a single-digit micromolar value.

For the origin of these results see US5665721A, “Heterocyclic substituted cyclopentane compounds” (Abbott Laboratories, priority 1995, dated 1997).
